Results: ChEMBL document CHEMBL1201862, “PubChem BioAssay data set” (2004)
Calls of active or inactive are those of the source.

Columns and labels:
[1] = Luminescence Cell-Based Dose Retest to Confirm Inhibitors of Cancer Stem Cells. [Related pubchem assays (depositor defined):AID2717, AID2721]; type: functional; details: Homo sapiens
[2] = molecular target: T1, Long-chain-fatty-acid--AMP ligase FadD28 (Mycobacterium tuberculosis, UniProt P9WQ59); assay: Fluorescence polarization aasay to screen for inhibitors that compete for the binding of FadD28 to a bisubstrate Measured in Biochemical System Using Plate Reader - 2147-01_Inhibitor_Dose_CherryPick_Activity.; type: functional, Mycobacterium tuberculosis H37Rv
T1 sequence (P9WQ59 whole entry): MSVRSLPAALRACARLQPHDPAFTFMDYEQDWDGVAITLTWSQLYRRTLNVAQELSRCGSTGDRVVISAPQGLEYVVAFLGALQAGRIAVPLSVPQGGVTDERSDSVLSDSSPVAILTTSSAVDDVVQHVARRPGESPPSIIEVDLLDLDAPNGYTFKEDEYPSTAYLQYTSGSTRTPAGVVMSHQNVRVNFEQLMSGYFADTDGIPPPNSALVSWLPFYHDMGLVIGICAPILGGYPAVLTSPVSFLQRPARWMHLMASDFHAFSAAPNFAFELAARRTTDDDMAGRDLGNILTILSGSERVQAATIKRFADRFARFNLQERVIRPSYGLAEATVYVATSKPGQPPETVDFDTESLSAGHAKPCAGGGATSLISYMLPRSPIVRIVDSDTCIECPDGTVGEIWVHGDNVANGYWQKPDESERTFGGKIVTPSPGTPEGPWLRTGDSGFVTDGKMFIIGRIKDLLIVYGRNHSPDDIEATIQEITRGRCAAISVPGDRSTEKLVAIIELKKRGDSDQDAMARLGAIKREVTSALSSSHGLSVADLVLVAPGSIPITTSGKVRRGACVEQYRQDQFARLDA

[3] = molecular target: Genome polyprotein (dengue virus type 2, UniProt P29990); assay: flavivirus cap methylation enzyme inhibition – biochemical, confirmation dose response, primary screen (AID 588689); type: functional
Genome polyprotein, sequence (P29990 2492-3391 limits assumed): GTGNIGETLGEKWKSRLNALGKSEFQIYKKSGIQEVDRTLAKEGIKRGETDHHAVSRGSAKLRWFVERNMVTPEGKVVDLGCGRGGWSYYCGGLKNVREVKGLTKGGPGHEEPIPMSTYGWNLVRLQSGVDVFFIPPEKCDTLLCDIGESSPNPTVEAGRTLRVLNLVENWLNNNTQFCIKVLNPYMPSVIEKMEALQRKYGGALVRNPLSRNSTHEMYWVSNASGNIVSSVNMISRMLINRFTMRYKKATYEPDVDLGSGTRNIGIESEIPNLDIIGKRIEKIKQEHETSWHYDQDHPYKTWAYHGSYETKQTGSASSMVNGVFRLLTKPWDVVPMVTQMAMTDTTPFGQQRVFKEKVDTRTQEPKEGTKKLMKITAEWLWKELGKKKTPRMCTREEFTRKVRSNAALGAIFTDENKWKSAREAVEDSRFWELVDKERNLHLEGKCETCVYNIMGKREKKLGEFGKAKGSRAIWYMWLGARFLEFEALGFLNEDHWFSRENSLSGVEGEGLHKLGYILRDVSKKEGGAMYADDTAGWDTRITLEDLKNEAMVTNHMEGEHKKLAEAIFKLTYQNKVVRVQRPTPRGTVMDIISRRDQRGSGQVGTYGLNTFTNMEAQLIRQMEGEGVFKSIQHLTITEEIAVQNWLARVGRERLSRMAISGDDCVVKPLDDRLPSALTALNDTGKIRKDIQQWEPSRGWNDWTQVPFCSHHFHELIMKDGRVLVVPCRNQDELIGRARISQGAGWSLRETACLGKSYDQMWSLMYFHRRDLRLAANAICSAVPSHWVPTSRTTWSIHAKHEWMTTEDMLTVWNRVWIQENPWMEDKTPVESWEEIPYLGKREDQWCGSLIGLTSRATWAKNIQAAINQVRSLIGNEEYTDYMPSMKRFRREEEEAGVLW

[4] = molecular target: Protein Wnt-3a (Mus musculus, UniProt P27467); assay: antagonism of Wnt3a pathway luciferase reporter – Wnt-LIGHT cells, luminescence, selectivity assay for Gli-SUFU antagonist project, dose response (AID 651570); type: functional; details: read-out: IC50_Mean;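 further: Wnt-LIGHT reporter cells stimulated with conditioned medium from Wnt3a-producing cells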
Protein Wnt-3a, sequence (P27467 whole entry): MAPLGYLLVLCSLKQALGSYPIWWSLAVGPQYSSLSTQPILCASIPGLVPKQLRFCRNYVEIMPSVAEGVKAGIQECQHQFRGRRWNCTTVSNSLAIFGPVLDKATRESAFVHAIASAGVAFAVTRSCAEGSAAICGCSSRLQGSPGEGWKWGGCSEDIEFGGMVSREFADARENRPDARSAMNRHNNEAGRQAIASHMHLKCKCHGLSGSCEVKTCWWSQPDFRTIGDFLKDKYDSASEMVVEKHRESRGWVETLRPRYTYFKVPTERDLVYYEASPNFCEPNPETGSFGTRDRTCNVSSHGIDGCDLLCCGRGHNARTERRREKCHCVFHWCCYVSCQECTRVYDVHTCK

[5] = molecular target: Nonstructural protein 1 (Influenza A virus, UniProt Q194T2); type: functional, Influenza A virus (A/California/07/2009(H1N1))
Nonstructural protein 1, sequence (Q194T2 whole entry): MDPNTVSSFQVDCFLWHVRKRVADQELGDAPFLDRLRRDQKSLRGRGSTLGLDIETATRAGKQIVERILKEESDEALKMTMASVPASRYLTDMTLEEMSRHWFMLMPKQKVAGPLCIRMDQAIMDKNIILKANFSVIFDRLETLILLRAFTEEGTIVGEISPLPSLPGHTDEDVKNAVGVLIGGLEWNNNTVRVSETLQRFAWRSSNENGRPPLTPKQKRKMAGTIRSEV

[6] = molecular target: Ras and Rab interactor 1/Tyrosine-protein kinase ABL1 (Homo sapiens, UniProt P00519+Q13671); type: functional;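 further: biochemical TR-FRET dose-response test measuring inhibition of binding between Rin1 and Abl proteins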
Ras and Rab interactor 1/Tyrosine-protein kinase ABL1, sequence (P00519 whole entry): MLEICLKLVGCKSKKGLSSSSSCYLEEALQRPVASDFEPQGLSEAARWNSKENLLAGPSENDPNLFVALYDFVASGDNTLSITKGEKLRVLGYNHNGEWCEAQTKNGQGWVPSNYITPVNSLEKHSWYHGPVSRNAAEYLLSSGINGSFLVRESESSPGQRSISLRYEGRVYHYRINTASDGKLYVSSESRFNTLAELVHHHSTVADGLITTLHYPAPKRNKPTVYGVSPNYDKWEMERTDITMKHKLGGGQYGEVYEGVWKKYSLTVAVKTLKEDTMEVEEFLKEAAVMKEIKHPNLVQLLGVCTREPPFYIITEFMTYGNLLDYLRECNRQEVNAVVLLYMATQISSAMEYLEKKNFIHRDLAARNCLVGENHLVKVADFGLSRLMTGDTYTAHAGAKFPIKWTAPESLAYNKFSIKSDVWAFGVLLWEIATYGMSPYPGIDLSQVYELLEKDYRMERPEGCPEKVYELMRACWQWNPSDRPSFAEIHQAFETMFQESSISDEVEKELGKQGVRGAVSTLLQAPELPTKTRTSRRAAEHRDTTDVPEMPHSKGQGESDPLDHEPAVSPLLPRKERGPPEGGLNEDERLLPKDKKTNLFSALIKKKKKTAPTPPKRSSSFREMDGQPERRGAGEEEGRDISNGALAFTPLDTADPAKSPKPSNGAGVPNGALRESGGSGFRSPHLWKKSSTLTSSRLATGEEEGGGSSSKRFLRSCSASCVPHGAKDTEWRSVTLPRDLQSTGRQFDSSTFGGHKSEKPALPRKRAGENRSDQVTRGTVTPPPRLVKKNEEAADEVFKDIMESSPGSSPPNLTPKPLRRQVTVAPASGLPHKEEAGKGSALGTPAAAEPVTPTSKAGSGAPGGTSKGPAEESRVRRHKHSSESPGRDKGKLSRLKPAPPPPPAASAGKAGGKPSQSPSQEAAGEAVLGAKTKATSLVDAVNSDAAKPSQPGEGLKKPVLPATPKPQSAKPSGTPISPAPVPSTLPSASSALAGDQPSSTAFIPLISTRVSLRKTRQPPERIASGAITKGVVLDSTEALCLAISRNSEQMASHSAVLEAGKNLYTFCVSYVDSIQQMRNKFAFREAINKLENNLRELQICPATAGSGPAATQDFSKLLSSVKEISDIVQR
Ras and Rab interactor 1/Tyrosine-protein kinase ABL1, sequence (Q13671 whole entry): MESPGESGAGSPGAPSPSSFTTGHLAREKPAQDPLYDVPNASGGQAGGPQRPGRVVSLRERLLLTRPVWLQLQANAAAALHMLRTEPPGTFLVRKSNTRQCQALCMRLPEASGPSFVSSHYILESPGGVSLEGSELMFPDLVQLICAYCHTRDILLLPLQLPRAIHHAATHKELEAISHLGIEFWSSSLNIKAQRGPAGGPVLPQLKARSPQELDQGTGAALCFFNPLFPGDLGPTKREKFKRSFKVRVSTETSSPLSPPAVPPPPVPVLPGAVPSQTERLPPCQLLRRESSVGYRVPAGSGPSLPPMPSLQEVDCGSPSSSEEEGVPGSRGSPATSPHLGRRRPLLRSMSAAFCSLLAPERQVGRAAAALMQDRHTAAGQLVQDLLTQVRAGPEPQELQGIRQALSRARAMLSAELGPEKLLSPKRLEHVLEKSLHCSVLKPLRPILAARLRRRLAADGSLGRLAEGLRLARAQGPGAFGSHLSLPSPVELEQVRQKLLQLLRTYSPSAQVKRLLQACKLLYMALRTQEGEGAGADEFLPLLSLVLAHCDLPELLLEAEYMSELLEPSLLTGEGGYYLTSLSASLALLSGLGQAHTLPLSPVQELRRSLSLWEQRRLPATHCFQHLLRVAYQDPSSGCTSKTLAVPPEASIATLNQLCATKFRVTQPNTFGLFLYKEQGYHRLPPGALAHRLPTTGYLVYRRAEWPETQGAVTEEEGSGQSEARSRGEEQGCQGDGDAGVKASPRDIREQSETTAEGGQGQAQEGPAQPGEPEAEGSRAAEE

[7] = molecular target: Glucose-6-phosphate 1-dehydrogenase (Homo sapiens, UniProt P11413); assay: inhibition of Homo sapiens G6PD, dose series – biochemical, fluorescence, selectivity assay for P. falciparum G6PD inhibitor project, dose response (AID 504792); type: functional
Glucose-6-phosphate 1-dehydrogenase, sequence (P11413 whole entry): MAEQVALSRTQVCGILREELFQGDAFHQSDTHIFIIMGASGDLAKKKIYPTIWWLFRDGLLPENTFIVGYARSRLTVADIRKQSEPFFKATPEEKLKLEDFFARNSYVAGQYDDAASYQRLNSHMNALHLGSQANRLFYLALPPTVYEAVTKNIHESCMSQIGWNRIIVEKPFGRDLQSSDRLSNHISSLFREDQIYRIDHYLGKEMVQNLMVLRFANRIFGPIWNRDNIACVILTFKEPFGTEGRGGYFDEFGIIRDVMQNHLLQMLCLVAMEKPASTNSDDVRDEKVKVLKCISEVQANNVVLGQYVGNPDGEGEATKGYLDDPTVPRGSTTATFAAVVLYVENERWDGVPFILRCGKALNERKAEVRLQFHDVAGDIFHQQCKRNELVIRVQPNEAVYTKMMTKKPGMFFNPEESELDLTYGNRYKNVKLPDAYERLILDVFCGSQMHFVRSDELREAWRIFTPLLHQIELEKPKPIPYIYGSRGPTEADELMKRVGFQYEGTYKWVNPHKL

[8] = molecular target: T2, Protein RecA (Mycobacterium tuberculosis, UniProt P9WHJ3); assay: Fluorescence Cell-Free Homogeneous Dose Retest to Identify Inhibitors of RecA-Intein Splicing Activity. [Related pubchem assays (depositor defined):AID2097, AID2223, AID489010, AID492950]; type: functional
T2 sequence (P9WHJ3 whole entry): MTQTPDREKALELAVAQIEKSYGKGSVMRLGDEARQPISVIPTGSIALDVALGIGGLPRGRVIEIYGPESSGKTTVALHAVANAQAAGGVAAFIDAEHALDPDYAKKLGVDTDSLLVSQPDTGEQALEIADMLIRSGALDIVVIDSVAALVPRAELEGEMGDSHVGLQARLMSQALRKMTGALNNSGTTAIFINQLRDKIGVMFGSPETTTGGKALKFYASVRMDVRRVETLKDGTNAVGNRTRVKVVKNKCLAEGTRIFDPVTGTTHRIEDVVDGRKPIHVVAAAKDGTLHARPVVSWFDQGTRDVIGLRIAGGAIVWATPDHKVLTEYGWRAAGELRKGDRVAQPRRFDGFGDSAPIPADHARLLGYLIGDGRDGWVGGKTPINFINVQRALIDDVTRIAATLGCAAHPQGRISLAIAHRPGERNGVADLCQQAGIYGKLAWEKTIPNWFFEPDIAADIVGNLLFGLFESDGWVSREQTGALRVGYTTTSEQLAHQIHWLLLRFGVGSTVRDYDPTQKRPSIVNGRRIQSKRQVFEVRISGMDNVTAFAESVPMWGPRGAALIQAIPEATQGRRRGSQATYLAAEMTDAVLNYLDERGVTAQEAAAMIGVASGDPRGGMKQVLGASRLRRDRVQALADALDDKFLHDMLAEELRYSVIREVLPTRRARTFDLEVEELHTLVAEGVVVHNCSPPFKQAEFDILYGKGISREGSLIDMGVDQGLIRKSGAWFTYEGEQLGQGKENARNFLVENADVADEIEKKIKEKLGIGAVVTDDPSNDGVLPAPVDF

[9] = molecular target: T3, Replicative DNA helicase DnaB (Mycobacterium tuberculosis, UniProt P9WMR3); assay: DnaB intein splicing inhibitors, dose response, biochemical, cell-free fluorescence (AID 449749); type: functional
T3 sequence (P9WMR3 whole entry): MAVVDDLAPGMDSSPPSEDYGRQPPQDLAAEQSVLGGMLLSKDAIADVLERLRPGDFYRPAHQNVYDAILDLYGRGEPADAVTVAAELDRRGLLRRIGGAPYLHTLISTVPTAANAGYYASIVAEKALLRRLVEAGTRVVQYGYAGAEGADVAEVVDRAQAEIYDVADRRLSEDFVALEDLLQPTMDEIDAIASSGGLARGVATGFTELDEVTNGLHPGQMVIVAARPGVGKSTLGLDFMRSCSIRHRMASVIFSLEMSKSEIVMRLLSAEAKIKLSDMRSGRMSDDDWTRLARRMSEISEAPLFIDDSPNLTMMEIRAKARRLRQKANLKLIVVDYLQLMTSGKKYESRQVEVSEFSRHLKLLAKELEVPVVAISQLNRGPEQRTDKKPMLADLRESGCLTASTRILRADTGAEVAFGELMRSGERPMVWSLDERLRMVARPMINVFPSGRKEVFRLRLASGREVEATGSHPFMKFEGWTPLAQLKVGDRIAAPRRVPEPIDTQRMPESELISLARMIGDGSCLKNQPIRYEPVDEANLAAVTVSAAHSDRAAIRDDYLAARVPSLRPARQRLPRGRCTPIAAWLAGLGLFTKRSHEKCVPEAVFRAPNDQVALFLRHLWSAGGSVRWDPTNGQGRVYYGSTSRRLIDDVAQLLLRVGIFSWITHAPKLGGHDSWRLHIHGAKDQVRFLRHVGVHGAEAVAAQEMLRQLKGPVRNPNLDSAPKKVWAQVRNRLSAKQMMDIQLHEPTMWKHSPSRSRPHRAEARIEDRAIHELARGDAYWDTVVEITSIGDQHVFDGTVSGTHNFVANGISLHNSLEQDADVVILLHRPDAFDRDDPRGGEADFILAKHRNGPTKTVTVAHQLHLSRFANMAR

[10] = system: SN12K1; assay: cells; type: functional
[11] = system: P388/ADR; assay: cells; type: functional
[12] = system: P388; assay: cells; type: functional
[13] = intracellular Trypanosoma cruzi inhibitors in host cells – cell-based, plate reader, cherry-pick samples, set 3, dose response (AID 651818); type: functional;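 further: compounds incubated with infected cells for about four days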
[14] = HIV-1 AD8 envelope cell-cell fusion blockers – cherry-pick, dose response (AID 652062); type: functional, cell-based;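 further: luciferase signal from cell-cell fusion driven by HIV-1 clade B AD8 Env; potency is for inhibitors of fusion seen as a drop in luminescence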
[15] = blockers of HIV-1 ZM109 envelope-driven cell-cell fusion – HeLa effector, CEM target cells, luciferase, cherry-pick, dose response (AID 652058); type: functional, cell-based;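 further: luciferase signal from HIV-1 Env mediated cell-cell fusion of effector and target cells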
[16] = viability loss in CEM21 cells – cell-based, CellTiter-Glo luminescence, cherry-picked, cytotoxicity control for viral fusion inhibitor project, dose response (AID 652042); type: functional;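 further: potency for signal decrease meaning cytotoxicity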
[17] = molecular target: Large T antigen (Simian virus 40, UniProt P03070); type: functional, Betapolyomavirus macacae;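 further: Confirmatory-stage PubChem screen for compounds that inhibit SV40 T antigen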
Large T antigen, sequence (P03070 whole entry): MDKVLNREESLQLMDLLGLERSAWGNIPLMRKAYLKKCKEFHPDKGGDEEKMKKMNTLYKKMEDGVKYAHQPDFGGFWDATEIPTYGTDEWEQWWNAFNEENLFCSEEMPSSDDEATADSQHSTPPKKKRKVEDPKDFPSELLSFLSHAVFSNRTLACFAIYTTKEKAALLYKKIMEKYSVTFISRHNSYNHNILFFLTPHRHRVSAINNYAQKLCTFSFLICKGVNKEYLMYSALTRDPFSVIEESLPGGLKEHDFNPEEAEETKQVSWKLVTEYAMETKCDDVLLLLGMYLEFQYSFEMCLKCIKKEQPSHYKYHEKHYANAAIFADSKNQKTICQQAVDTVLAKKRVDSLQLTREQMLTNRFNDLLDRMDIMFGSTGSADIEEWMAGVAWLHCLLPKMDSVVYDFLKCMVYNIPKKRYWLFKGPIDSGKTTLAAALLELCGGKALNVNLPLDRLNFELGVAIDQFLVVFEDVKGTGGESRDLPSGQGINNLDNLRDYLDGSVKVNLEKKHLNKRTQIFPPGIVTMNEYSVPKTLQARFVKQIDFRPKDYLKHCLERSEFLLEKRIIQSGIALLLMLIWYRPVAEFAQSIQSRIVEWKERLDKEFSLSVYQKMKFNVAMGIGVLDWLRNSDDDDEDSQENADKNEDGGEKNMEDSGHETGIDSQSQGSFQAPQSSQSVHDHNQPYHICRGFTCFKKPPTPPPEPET

[18] = molecular target: FAD-linked sulfhydryl oxidase ALR (Homo sapiens, UniProt P55789); assay: ALR-catalysed DTT oxidation blockers – biochemical, H2O2 detection, luminescence, cherry-pick, dose response (AID 493248)
FAD-linked sulfhydryl oxidase ALR, sequence (P55789 whole entry): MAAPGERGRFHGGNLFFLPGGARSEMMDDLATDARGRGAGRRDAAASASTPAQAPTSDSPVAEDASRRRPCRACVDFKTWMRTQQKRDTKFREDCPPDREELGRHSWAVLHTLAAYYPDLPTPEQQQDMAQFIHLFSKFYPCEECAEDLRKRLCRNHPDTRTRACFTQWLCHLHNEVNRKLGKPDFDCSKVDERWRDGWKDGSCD

[19] = molecular target: T4, Zinc finger protein mex-5 (Caenorhabditis elegans, UniProt Q9XUB2); assay: potency of MEX-5 RNA-binding blockers – biochemical, C. elegans, fluorescence polarization, dose response (AID 1960)
T4 sequence (Q9XUB2 whole entry): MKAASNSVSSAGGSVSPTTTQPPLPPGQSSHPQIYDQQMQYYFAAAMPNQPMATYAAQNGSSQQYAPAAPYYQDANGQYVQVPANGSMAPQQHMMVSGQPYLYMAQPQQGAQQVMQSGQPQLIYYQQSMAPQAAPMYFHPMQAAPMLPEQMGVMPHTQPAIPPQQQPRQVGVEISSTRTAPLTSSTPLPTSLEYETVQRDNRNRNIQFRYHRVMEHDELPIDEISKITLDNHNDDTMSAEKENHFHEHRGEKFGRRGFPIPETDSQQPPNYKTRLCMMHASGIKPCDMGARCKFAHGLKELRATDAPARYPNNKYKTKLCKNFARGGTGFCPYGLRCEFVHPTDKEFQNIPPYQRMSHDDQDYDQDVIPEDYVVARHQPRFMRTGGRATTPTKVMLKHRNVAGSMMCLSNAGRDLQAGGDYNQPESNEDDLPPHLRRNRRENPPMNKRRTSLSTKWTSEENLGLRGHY

[20] = molecular target: T5, RNA-binding protein pos-1 (Caenorhabditis elegans, UniProt G5EF15); assay: disruptors of C. elegans POS-1 RNA interaction – biochemical, fluorescence polarization, dose response (AID 1964);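 further: purified POS-1 fused to maltose binding protein made in E. coli; potency of compounds blocking POS-1 binding to fluorescent RNA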
T5 sequence (G5EF15 whole entry): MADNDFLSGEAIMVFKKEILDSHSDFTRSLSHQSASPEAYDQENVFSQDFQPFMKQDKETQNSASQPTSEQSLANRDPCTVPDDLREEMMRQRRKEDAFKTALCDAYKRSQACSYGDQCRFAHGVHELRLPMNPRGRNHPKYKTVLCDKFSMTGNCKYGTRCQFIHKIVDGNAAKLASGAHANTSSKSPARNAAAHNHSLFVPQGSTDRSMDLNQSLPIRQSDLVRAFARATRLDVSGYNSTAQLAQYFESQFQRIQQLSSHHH

O=C1NN(c2cccc(Br)c2)C(=O)/C1=C\c1ccccc1
AC50 [1]: 3.04 µM (active) | AC50 [2]: > 100 µM (inactive) | IC50 [3]: 35.1 µM (active)

Cc1ccc(NCC(=O)Nc2cccc(S(=O)(=O)N(C)C)c2)cc1S(=O)(=O)N1CCCCCC1
IC50 [4]: 8.18 µM (active)

O=C(NN1C(=O)/C(=C/c2nc3ccccc3[nH]2)SC1=S)c1ccccc1
IC50 [5]: > 100 µM (active) | AC50 [2]: 70.5 µM (active)

Cc1ccc(C(=O)N2CCN3C(=O)c4ccccc4C23c2ccc(Cl)cc2)cc1 (stereo not given)
IC50 [4]: 10.3 µM (active)

CCN(CC)C(=O)c1ccc(NC(=O)c2cc(S(=O)(=O)N3CCCCCC3)ccc2OC)cc1
IC50 [6]: 0.618 µM (active)

O=S(=O)(Nc1c(O)ccc2ccccc12)c1ccccc1
IC50 [7]: 29.9 µM (inactive) | EC50 [8]: 1.51 µM (active) | AC50 [9]: 5.09 µM (active)

Cc1cccc(NC(=O)Cn2c(=O)oc3cc(S(=O)(=O)N4CCCC4)ccc32)n1
AC50 [2]: 34.8 µM (active)

CN(C(=O)c1ccc(NC(=O)Cc2ccc(NC(=O)C3CCN(C(=O)C4CCCC4)CC3)cc2)cc1)C1CCCC1
IC50 [6]: 12.6 µM (inactive)

O=C1CCCn2c3ccccc3c3ccnc1c32
GI50 ([10]; Homo sapiens, SN12K1): 39.9 µM (inactive) | GI50 ([11]; Mus musculus, P388/ADR): 20 µM (inactive) | GI50 ([12]; Mus musculus, P388): 22.6 µM (inactive)

Nc1cc2c(cc1[N+](=O)[O-])[nH]c1c(-c3ccccc3)nccc12
GI50 ([10]; Homo sapiens, SN12K1): 20.7 µM (inactive) | GI50 ([11]; Mus musculus, P388/ADR): 17.7 µM (inactive) | GI50 ([12]; Mus musculus, P388): 17.2 µM (inactive)

Cn1sc2ccccc2c1=S
GI50 ([10]; Homo sapiens, SN12K1): 2.79 µM (inactive) | GI50 ([11]; Mus musculus, P388/ADR): 0.441 µM (active) | GI50 ([12]; Mus musculus, P388): 0.294 µM (active)

O=P1(Oc2ccc(Cl)cc2Cl)Oc2ccc3ccccc3c2-c2c(ccc3ccccc23)O1
GI50 ([10]; Homo sapiens, SN12K1): 20.7 µM (inactive) | GI50 ([11]; Mus musculus, P388/ADR): 51.4 µM (inactive) | GI50 ([12]; Mus musculus, P388): 33.3 µM (inactive)

OCCCNc1ncnc2c1ncn2[C@H]1CN(Cc2ccc(-c3ccccc3)cc2)C[C@@H](CO)O1
IC50 [6]: 20.6 µM (inactive)

C[C@H](CO)N1C[C@H](C)[C@H](CN(C)Cc2ccc(-c3ccccc3)cc2)Oc2c(NC(=O)NC3CCCCC3)cccc2C1=O
AC50 [13]: 3.38 µM (active)

C[C@H]1CN([C@@H](C)CO)C(=O)c2cc(NS(=O)(=O)c3ccccc3)ccc2O[C@@H]1CN(C)Cc1ccc(-c2ccccc2)cc1
AC50 [13]: 6.29 µM (active)

C[C@@H]1CN([C@@H](C)CO)C(=O)c2cccc(NC(=O)c3nc4ccccc4s3)c2O[C@H]1CN(C)Cc1ccc(C(=O)Nc2ccccc2N)cc1
AC50 [13]: 2.09 µM (active)

Cc1ccc(S(=O)(=O)N(C)C[C@@H]2Oc3cc(C#CC4CCCC4)ccc3S(=O)(=O)N([C@H](C)CO)C[C@H]2C)cc1
AC50 [14]: 35.2 µM (active) | AC50 [15]: 2.34 µM (active) | AC50 [16]: 61.4 µM (active)

COc1ccc2[nH]c3c(C)c4cc[n+](C)cc4c(C)c3c2c1
GI50 [10]: 0.287 µM (active) | GI50 [11]: 47.4 µM (inactive) | GI50 [12]: 0.796 µM (active)

CCCN1CCc2cccc3c2[C@H]1Cc1ccc(O)c(O)c1-3
IC50 [17]: 29.7 µM (active) | IC50 [7]: > 80 µM (inactive) | AC50 [18]: 0.009 µM (active) | EC50 [19]: 3.12 µM (active) | EC50 [20]: 5.56 µM (active)
